Measurements as given in PubChem BioAssay (NCI).
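Growth conditions: 96-well plates. Treatment: test compound, 48 hours, 5 concentrations. Analysis: linear interpolation between bracketing concentrations; unreached endpoints set to highest concentration. At the GI50, growth is halved. TGI: total growth inhibition.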

Columns and labels:
Assay in all cases: growth of human tumour cells (NCI), 48 h
HL-60(TB) leukemia = test system: HL-60(TB) leukemia
RXF 393 renal = test system: RXF 393 renal
SNB-75 CNS = test system: SNB-75 CNS
TK-10 renal = test system: TK-10 renal
COLO 205 colon = test system: COLO 205 colon
SF-295 CNS = test system: SF-295 CNS
SK-OV-3 ovarian = test system: SK-OV-3 ovarian
UACC-257 melanoma = test system: UACC-257 melanoma
ACHN renal = test system: ACHN renal
KM12 colon = test system: KM12 colon

Row | Structure (SMILES) | TGI (HL-60(TB) leukemia) | TGI (RXF 393 renal) | TGI (SNB-75 CNS) | TGI (TK-10 renal) | TGI (COLO 205 colon) | TGI (SF-295 CNS) | TGI (SK-OV-3 ovarian) | TGI (UACC-257 melanoma) | TGI (ACHN renal) | TGI (KM12 colon) | GI50 (HL-60(TB) leukemia) | GI50 (RXF 393 renal) | GI50 (SNB-75 CNS) | GI50 (TK-10 renal) | GI50 (COLO 205 colon) | GI50 (SF-295 CNS) | GI50 (SK-OV-3 ovarian) | GI50 (UACC-257 melanoma) | GI50 (ACHN renal) | GI50 (KM12 colon)
1 | CN(C)c1ccc(/C=C2\C[C@H]3[C@@H]4CCC5=CC(=O)CC[C@]5(C)[C@H]4CC[C@]3(C)C2=O)cc1 | > 100 µM | > 100 µM | > 100 µM | > 100 µM | 64.8 µM | > 100 µM | > 100 µM | 67.3 µM | > 100 µM | > 100 µM |  |  |  |  |  |  |  |  |  | 
2 | CN(C)C/C=C(/c1ccc(Br)cc1)c1cccnc1 | 0.0516 µM | > 100 µM | > 100 µM | > 100 µM | 32.4 µM | 63.5 µM | > 100 µM | 35.3 µM | > 100 µM | > 100 µM |  |  |  |  |  |  |  |  |  | 
3 | Cc1cc(O)c2c(c1O)C(=O)c1c(O)ccc(O)c1C2=O | > 100 µM | > 100 µM | > 100 µM | > 100 µM | > 100 µM | > 100 µM | > 100 µM | > 100 µM | > 100 µM | > 100 µM |  |  |  |  |  |  |  |  |  | 
4 | COc1cc(/C=C2/C[C@H]3[C@@H]4CCC5=CC(=O)CC[C@]5(C)[C@H]4CC[C@]3(C)NC2=O)cc(OC)c1OC | 45.3 µM | 46.7 µM | > 100 µM | 56.2 µM | 44.4 µM | 77.7 µM | > 100 µM | > 100 µM | > 100 µM | > 100 µM |  |  |  |  |  |  |  |  |  | 
5 | C[C@H](Nc1ccc(C#N)n(C)c1=O)c1cc2cc(Cl)ccc2[nH]c1=O | 58.5 µM | 67.7 µM | 55.4 µM | > 100 µM | 40.2 µM | 94.3 µM | 75.1 µM | > 100 µM | > 100 µM | > 100 µM | 22.4 µM | 13.3 µM | 4.67 µM | 37.8 µM | 19 µM | 26.9 µM | 23.9 µM | 32.6 µM | 27 µM | 38.3 µM
6 | CC(C)(C)OC(=O)N1C(C2=COc3ccccc3O2)=COc2cccnc21 |  | 3.06 µM | 29.2 µM | 7.72 µM | 3.64 µM | 3.99 µM | 3.99 µM | 3.92 µM | 3.19 µM | 3.97 µM |  |  |  |  |  |  |  |  |  | 
7 | CCCCCCOC(=O)C(N)Cc1ccc(OC)cc1 (stereo unspecified) | > 100 µM | > 100 µM | > 100 µM | > 100 µM | > 100 µM | > 100 µM | > 100 µM | > 100 µM | > 100 µM | > 100 µM |  |  |  |  |  |  |  |  |  | 
8 | O=C(COC(c1ccc(F)cc1)c1ccc(F)cc1)N1CCN(CCCc2ccccc2)CC1 | 14.1 µM | 8.1 µM |  | 17.8 µM | 3.36 µM | 13 µM | 21.5 µM | 11.3 µM | 13.7 µM | 15.9 µM |  |  |  |  |  |  |  |  |  | 
9 | CCN(CC)/[N+]([O-])=N/OC | > 100 µM | > 100 µM |  | > 100 µM |  | > 100 µM | > 100 µM | > 100 µM | > 100 µM | > 100 µM |  |  |  |  |  |  |  |  |  | 
